“Also recorded” adds a separate entry of the source. Like-named read-outs stand apart in the source and are kept apart here.
Key:
JAK1 = target: T1, JAK1 (Homo sapiens, UniProt P23458); assay: Biochemical JAK kinase assay (LanthaScreen), JAK1; conditions: converted from pIC50 by Cheng-Prusoff; ATP at Km 25 μM; read-out: JAK 1 (pKi) (converted)
T1 construct: GST; purchased Life Technologies
Protocol: Assay 1: Biochemical JAK and Tyk2 Kinase Assays A panel of four LanthaScreen JAK biochemical assays (JAK1, 2, 3 and Tyk2) were carried in a common kinase reaction buffer (50 mM HEPES, pH 7.5, 0.01% Brij-35, 10 mM MgCl2, and 1 mM EGTA). Recombinant GST-tagged JAK enzymes and a GFP-tagged STAT1 peptide substrate were obtained from Life Technologies. Serially or discretely diluted compounds were pre-incubated with each of the four JAK enzymes and the substrate in white 384-well microplates (Corning) at ambient temperature for 1 h. ATP was subsequently added to initiate the kinase reactions in 10 μL total volume, with 1% DMSO. […] The plates were allowed to incubate at ambient temperature for 1 h before being read on the EnVision reader (Perkin Elmer). Emission ratio signals (520 nm/495 nm) were recorded and utilized to calculate the percent inhibition values based on DMSO and background controls. For dose-response analysis, percent inhibition data were plotted vs. compound concentrations, and IC50 values were determined from a 4-parameter robust fit model with the Prism software (GraphPad Software). Results were expressed as pIC50 (negative logarithm of IC50) and subsequently converted to pKi (negative logarithm of dissociation constant, Ki) using the Cheng-Prusoff equation.

[1] = Assay 8: human skin permeability assay (MedFlux-HT flow-through diffusion cell); format: in vitro ADME; conditions: 0.5% Ointment
Protocol: Assay 8: Human Skin Permeability Assay The objective of this experiment was to assess the percutaneous absorption of test compounds through human skin following topical application. The model uses excised human skin mounted in specially designed diffusion chambers (static or flow-through) that allow the skin to be maintained at a temperature and humidity that match real use conditions. The formulation was applied to the surface of the skin and the penetration of the drug is measured by monitoring its rate of appearance in the receptor solution flowing underneath the skin samples. This in vitro system allows carefully control of many of the potential variables involved in topical application, such as dosing volumes, humidity, temperature, drug stability, and skin thickness. […] This system was developed to specifically minimize the dosing area during in vitro experiments, thus allowing more dosing replications within the limited surface area of ex vivo human skin. The diffusion cells were placed in cell warming supports and heated using a circulating water bath in order to maintain the skin surface temperature at approx. 32° C. The cells were connected to multi-channel peristaltic pumps and maintained at a flow-rate of approximately 10 μL/min (600 μL/hr) for a continuous flow of receiver fluid directly under the skin. Following continuous sampling over 24 h, samples were assayed for test compound levels by LC-MS/MS. The test compound was detected in receiver fluid from […] following application of test ointment formulation (n=5). The ointment used is disclosed in Assay 7. The receiver fluid was PBS with 0.1% Brij.

[2] = test system: TPA-induced increase in ear thickness; assay: Assay 10: in vivo TPA-induced acute dermatitis model in mice; set-up: species or system female Balb/c mice
Protocol: Assay 10: In Vivo TPA-Induced Acute Dermatitis Model in Mice
The objective of this assay is to assess the anti-inflammatory effect of compound (I), in a model of acute dermatitis being studied for cutaneous inflammatory conditions such as atopic dermatitis (Dong et al., J Pharmacol Exp Ther, 2013, 344, 436-446).
Topical dermal application of phorbol ester TPA in mice causes an inflammatory response that is characterized by edema and neutrophil influx at the early phase (2-24 h) and by epidermal cell proliferation at the later phase (24-48 h) (Griffiths et al., Agents and Actions, 1988, 25, 344-351). In this model, female Balb/c mice were topically administered with 20 μl/ear of either vehicle or TPA (2.5 μg). For the solution formulation, vehicle (1:7 DMSO:Acetone) or test compound was topically applied 30 min before and 15 min after TPA administration. For the ointment formulation, vehicle or compound (I) (0.5% strength) was applied 30 min before TPA. The degree of inflammation was assessed as the change in ear thickness at 6 hours after TPA application.

[3] = Assay 16: Caco-2 permeation assay; format: in vitro ADME; conditions: human, Caco-2, with Verapamil 25 μM (P-gp); as illustrated in Table 13; read-out: permeability class (Caco-2)
Protocol: (§1) Assay 16: Caco-2 Permeation Assay The Caco-2 permeation assay was used as an indication of skin permeability. The assay measures the rate at which test compounds in solution permeate a cell monolayer (designed to mimic the tight junction of human small intestinal monolayers). CacoReady 24-well transwell plates were obtained from […], Calif.). The compounds were evaluated at a concentration of 5 μM from 10 mM DMSO stock solutions in duplicate (n=2). The passive permeability of the compounds tested was evaluated using Caco-2 cell monolayers along with Verapamil (25 μM) to inhibit P-gp transport proteins in the apical to basolateral (A-B) direction. The experiment was conducted in a 37° C., 5% CO2 incubator. Caco-2 culture media consisted of standard filtered DMEM, FCS 10%, L-Glutamine 1% and PenStrep 1%. Basal assay plate was prepared by adding 750 μL of transport buffer to A-B wells. A CacoReadyTM plate was prepared by removing the Caco-2 media from the apical wells and replacing with fresh transport media (200 μL repeated for a total of 3 washes). Blank media (200 μL) was then replaced with diluted compound for A-B wells. To begin the incubation, the basal plate was removed from the incubator and the apical section was added on top of it. […] The permeation coefficient (Kp, mean A to B+Verapamil […]) in cm/sec was calculated as dQ (flux)/(dt×Area×concentration).

Caco-2 cell monolayers = assay: Assay 16: Caco-2 permeation assay; format: in vitro ADME; conditions: 5 μM, A to B, with Verapamil (25 μM), 120 minutes
Protocol: as §1

[4] = Hanford, minipig, in vivo
Protocol: Assay 6: Dermal Pharmacokinetics in Hanford Mini-Pig Skin
The objective of this Study was to determine the epidermal, dermal and plasma pharmacokinetics of compound (I) following a 24 hour exposure to intact Hanford mini-pig skin.
Twenty-four hours prior to dosing, the hair was shaved from the back of 10-15 kg Hanford mini-pigs exposing an area of at least 700 cm^2 (about 10% of body surface). At time zero, compound (I) was applied to the back of the mini-pigs at a dose of 25 μL/cm^2. The skin was covered with an adhesive cover to prevent loss of compound to the cage or bedding. Following 24 h exposure, the backs were gently washed with soap and water to remove non-absorbed drug and patted dry. Immediately following this washing, blood was drawn by venipuncture from the mini-pigs. The outer skin (stratum corneum) was then removed by adhesive tape stripping. Upon exposure of the epidermis a 0.5 cm punch biopsy was taken. The epidermis and dermis were quickly separated, weighed and snap frozen. Similar samples were taken at 94 h, and 168 h (7 days) post-dosing in mini-pigs. Epidermis and dermis samples were homogenized in 1:10 (w/v) water using a Covaris ultrasonic homogenizer. Samples were extracted in 3 volumes of acetonitrile and quantified against a standard curve via LC-MS analysis.

T1 sequence (P23458 whole entry): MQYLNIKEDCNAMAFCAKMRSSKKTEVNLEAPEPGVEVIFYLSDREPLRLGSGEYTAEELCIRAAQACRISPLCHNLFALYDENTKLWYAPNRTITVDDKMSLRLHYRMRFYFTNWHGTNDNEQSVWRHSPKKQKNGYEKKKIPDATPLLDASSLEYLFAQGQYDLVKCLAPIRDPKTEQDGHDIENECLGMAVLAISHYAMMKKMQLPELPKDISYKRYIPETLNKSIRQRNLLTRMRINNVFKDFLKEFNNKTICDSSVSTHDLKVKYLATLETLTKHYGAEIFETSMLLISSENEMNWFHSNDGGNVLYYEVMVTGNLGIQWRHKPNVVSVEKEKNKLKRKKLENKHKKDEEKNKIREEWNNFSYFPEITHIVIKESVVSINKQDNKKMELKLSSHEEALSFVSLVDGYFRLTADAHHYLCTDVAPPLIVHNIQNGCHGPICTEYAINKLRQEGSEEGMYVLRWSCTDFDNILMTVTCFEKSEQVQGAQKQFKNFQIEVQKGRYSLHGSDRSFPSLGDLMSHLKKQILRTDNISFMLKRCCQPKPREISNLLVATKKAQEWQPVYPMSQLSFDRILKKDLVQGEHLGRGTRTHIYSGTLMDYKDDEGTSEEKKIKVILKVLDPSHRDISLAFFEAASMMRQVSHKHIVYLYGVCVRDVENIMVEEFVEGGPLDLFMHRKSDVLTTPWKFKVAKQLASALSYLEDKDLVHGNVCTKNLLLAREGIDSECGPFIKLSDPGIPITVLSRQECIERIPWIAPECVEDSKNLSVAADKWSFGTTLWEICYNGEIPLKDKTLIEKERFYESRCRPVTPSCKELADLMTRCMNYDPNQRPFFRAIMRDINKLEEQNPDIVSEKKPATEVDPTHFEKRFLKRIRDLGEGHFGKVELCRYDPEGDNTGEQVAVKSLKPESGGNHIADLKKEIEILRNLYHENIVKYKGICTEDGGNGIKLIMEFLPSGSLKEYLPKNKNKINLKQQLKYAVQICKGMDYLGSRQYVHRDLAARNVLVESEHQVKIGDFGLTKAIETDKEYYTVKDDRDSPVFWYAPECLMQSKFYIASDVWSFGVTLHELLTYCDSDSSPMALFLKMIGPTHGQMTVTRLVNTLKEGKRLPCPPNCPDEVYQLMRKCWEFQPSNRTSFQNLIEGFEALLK

Structure (SMILES): CCS(=O)(=O)N1[C@@H]2CCC[C@H]1C[C@H](N(C)c1nc(CO)c(F)c(Nc3cc(C)[nH]n3)n1)C2 [Compound (I), (2-(((1R,3s,5S)-9-(ethylsulfonyl)-9-azabicyclo[3.3.1]nonan-3-yl)(methyl)amino)-5-fluoro-6-((5-methyl-1H-pyrazol-3-yl)amino)pyrimidin-4-yl)methanol]
- Ki (JAK1): 63.1 pM
- permeability in human skin assay (in words) [1]: good permeability
- MedFlux Permeability, flux permeating through 1 cm2 of human skin (Mean) ([1]; n=5, receiver fluid PBS with 0.1% Brij): 39.1 ng/cm2/sec
- permeability in human skin assay (in words) ([1]; listed as compound (I)): adequate permeability
- Inhibition of TPA-induced increase in ear thickness (mean % inh ± SEM (n)) [2]: 34.9%
- Inhibition of TPA-induced increase in ear thickness (mean % inh ± SEM (n)) ([2]; 30 μg/ear dosed as solution, 6 hours after TPA): 6.6% ± 1.1%
- Inhibition of TPA-induced increase in ear thickness (mean % inh ± SEM (n)) ([2]; 100 μg/ear dosed as solution, 6 hours after TPA): 2.4% ± 0.7%
- Inhibition of TPA-induced increase in ear thickness (mean % inh ± SEM (n)) ([2]; 300 μg/ear dosed as solution, 6 hours after TPA): 35.5% ± 3.1%
- Inhibition of TPA-induced increase in ear thickness (mean % inh ± SEM (n)) ([2]; 1000 μg/ear dosed as solution (highest dose), 6 hours after TPA): 54.8 ± 2.6%
- Inhibition of TPA-induced increase in ear thickness (mean % inh ± SEM (n)) ([2]; 0.5% Ointment, 20 μl/ear, 30 min before TPA, 6 hours after TPA): 34.9% ± 3.3% (12)
- effect on TPA-induced increase in ear thickness (in words) ([2]; dosed as a solution): dose-dependent effect; also recorded: dose dependent manner
- Papp A→B at 120 min, 5 μM [3]: > 20 ×10⁻⁶ cm/s
- Cacoverap Kp (Caco-2 cell monolayers): 42.3 ×10⁻⁶ cm/s
- plasma exposure (below the limit of quantitation) [4]: < 0.001 µg/mL

Reference: patent US10774080B2, “Pyrimidine compound as JAK kinase inhibitor” (THERAVANCE BIOPHARMA R&D IP, LLC, priority 2017, dated 2020)
